pIC50: −log10 of the molar value. The source made the active and inactive calls. The rule behind the calls is not given here.
Legend:
[1] = tested on: A549; experiment: Cytotoxicity against human A549 cells after 72 hrs by sulforhodamine B assay; type: functional, cell-based; details: A549, 72 h
[2] = tested on: BALB/3T3; experiment: Cytotoxicity against mouse BALB/3T3 cells after 72 hrs by sulforhodamine B assay; type: cell-based; details: BALB/3T3, 72 h
[3] = Induction of apoptosis in human LoVo/DX cells assessed as loss of mitochondrial membrane potential at 15 uM after 24 hrs by JC-1 staining based flow cytometric method relative to control; type: functional
[4] = tested on: 4T1; experiment: Cytotoxicity against mouse 4T1 cells after 72 hrs by sulforhodamine B assay; type: functional, cell-based; details: 4T1, 72 h
[5] = tested on: Mus musculus; experiment: Toxicity in BALB/c mdb mouse implanted with mouse 4T1 cells assessed as hematocrit at 100 umol/kg, ip administered five times weekly measured at 29 day post cell innoculum (reference value: 39.9 +/- 3.7 %); type: organism-based; details: in vivo, 696 h
[6] = tested on: LoVo; experiment: Induction of apoptosis in human LoVo cells assessed as necrotic cells at 15 uM after 24 hrs by APC-Annexin-V/propidium iodide staining based flow cytometric method (reference value: 10%); type: functional
[7] = Induction of apoptosis in human LoVo/DX cells assessed as late apoptotic cells at 15 uM after 24 hrs by APC-Annexin-V/propidium iodide staining based flow cytometric method relative to control; type: functional
[8] = tested on: Mus musculus; experiment: Toxicity in BALB/c mdb mouse implanted with mouse 4T1 cells assessed as hemoglobin level at 100 umol/kg, ip administered five times weekly measured at 29 day post cell innoculum (reference value: 15.1 +/- 1.5 g/dl); type: organism-based; details: in vivo, 696 h
[9] = tested on: LoVo; experiment: Induction of apoptosis in human LoVo cells assessed as increase in early apoptotic cells at 15 uM after 24 hrs by APC-Annexin-V/propidium iodide staining based flow cytometric method relative to control; type: functional
[10] = tested on: Mus musculus; experiment: Toxicity in BALB/c mdb mouse implanted with mouse 4T1 cells assessed as WBC level at 100 umol/kg, ip administered five times weekly measured at 29 day post cell innoculum (reference value: 212.3 +/- 82.8 10^3/uL); type: organism-based; details: in vivo, 696 h
[11] = tested on: Mus musculus; experiment: Toxicity in BALB/c mdb mouse implanted with mouse 4T1 cells assessed as RBC level at 100 umol/kg, ip administered five times weekly measured at 29 day post cell innoculum (reference value: 8.6 +/- 0.9 10^6/uL); type: organism-based; details: in vivo, 696 h
[12] = tested on: LoVo/DX; experiment: Induction of apoptosis in human LoVo/DX cells assessed as increase in caspase3/7 activity at >15 uM using Ac-DEVD-ACC as substrate pretreated for 24 hrs followed by substrate addition measured for 2 hrs by fluorescence assay; type: functional, cell-based
[13] = tested on: MES-SA/Dx5; experiment: Cytotoxicity against human MESSA/DX5 cells after 72 hrs by sulforhodamine B assay; type: functional, cell-based; details: MES-SA/Dx5, 72 h
[14] = Cytotoxicity against human LoVo/DX cells after 72 hrs by sulforhodamine B assay; type: functional, cell-based
[15] = tested on: LoVo; experiment: Induction of apoptosis in human LoVo cells assessed as increase in caspase3/7 activity at >15 uM using Ac-DEVD-ACC as substrate pretreated for 24 hrs followed by substrate addition measured for 2 hrs by fluorescence assay; type: functional, cell-based
[16] = tested on: 4T1; experiment: Anti-tumor activity against mouse 4T1 cells implanted in BALB/c mdb mouse assessed as tumor growth inhibition at 100 umol/kg, ip administered five times weekly measured on day 29 post cell innoculum relative to control; type: functional; details: 4T1, ip, 696 h, read-out: TGI
[17] = tested on: LoVo; experiment: Induction of apoptosis in human LoVo cells assessed as loss of mitochondrial membrane potential at 15 uM after 24 hrs by JC-1 staining based flow cytometric method relative to control; type: functional
[18] = tested on: LoVo/DX; experiment: Cell cycle arrest in human LoVo/DX cells assessed as accumulation at G2/M phase at 15 uM after 24 hrs by propidium iodide staining based flow cytometric method; type: functional
[19] = tested on: Mus musculus; experiment: Hepatotoxicity in BALB/c mdb mouse implanted with mouse 4T1 cells assessed as liver weight at 100 umol/kg, ip administered five times weekly measured at 29 day post cell innoculum (reference value: 1.2 +/- 0.13 g); type: toxicity, organism-based; details: in vivo, 696 h
[20] = tested on: HL-60; experiment: Cytotoxicity against human HL60 cells after 72 hrs by sulforhodamine B assay; type: functional, cell-based; details: HL-60, 72 h
[21] = tested on: LoVo; experiment: Potency index, ratio of sulforaphane IC50 to compound IC50 for human LoVo cells; type: functional
[22] = tested on: Mus musculus; experiment: Toxicity in BALB/c mdb mouse implanted with mouse 4T1 cells assessed as serum ALT level at 100 umol/kg, ip administered five times weekly measured at 29 day post cell innoculum (reference value: 23.8 +/- 2.2 U/L); type: organism-based; details: in vivo, 696 h
[23] = tested on: Mus musculus; experiment: Toxicity in BALB/c mdb mouse implanted with mouse 4T1 cells assessed as serum urea level at 100 umol/kg, ip administered five times weekly measured at 29 day post cell innoculum (reference value: 3.8 +/- […]); type: organism-based; details: in vivo, 696 h
[24] = tested on: LoVo/DX; experiment: Cell cycle arrest in human LoVo/DX cells assessed as decrease in accumulation at G0/G1 phase at 15 uM after 24 hrs by propidium iodide staining based flow cytometric method; type: functional
[25] = tested on: LoVo; experiment: Cytotoxicity against human LoVo cells assessed as cell death at >15 uM after 24 hrs; type: cell-based
[26] = tested on: 4T1; experiment: Anti-tumor activity against mouse 4T1 cells implanted in BALB/c mdb mouse assessed as tumor growth inhibition at 100 umol/kg, ip administered five times weekly measured on day 15 post cell innoculum relative to control; type: functional; details: 4T1, ip, 360 h, read-out: TGI
[27] = tested on: LoVo; experiment: Cell cycle arrest in human LoVo cells assessed as decrease in accumulation at G0/G1 phase at 15 uM after 24 hrs by propidium iodide staining based flow cytometric method; type: functional
[28] = tested on: Mus musculus; experiment: Toxicity in BALB/c mdb mouse implanted with mouse 4T1 cells assessed as lung weight at 100 umol/kg, ip administered five times weekly measured at 29 day post cell innoculum (reference value: 0.2 +/- 0.018 g); type: organism-based; details: in vivo, 696 h
[29] = tested on: LoVo; experiment: Induction of apoptosis in human LoVo cells assessed as late apoptotic cells at 15 uM after 24 hrs by APC-Annexin-V/propidium iodide staining based flow cytometric method relative to control; type: functional
[30] = tested on: LoVo; experiment: Induction of apoptosis in human LoVo cells assessed as increase in caspase3/7 activity at 15 uM using Ac-DEVD-ACC as substrate pretreated for 24 hrs followed by substrate addition measured for 2 hrs by fluorescence assay relative to control; type: functional
[31] = tested on: Mus musculus; experiment: Toxicity in BALB/c mdb mouse implanted with mouse 4T1 cells assessed as body weight loss at 100 umol/kg, ip administered five times weekly measured 3 times weekly during compound dosing; type: organism-based; details: in vivo
[32] = tested on: Mus musculus; experiment: Toxicity in BALB/c mdb mouse implanted with mouse 4T1 cells assessed as serum PLT level at 100 umol/kg, ip administered five times weekly measured at 29 day post cell innoculum (reference value: 972 +/- 157 10^3/uL); type: organism-based; details: in vivo, 696 h
[33] = tested on: Mus musculus; experiment: Toxicity in BALB/c mdb mouse implanted with mouse 4T1 cells assessed as spleen weight at 100 umol/kg, ip administered five times weekly measured at 29 day post cell innoculum (reference value: 0.603 +/- 0.133 g); type: organism-based; details: in vivo, 696 h
[34] = Cytotoxicity against human LoVo/DX cells assessed as cell death at >15 uM after 24 hrs; type: cell-based
[35] = tested on: HL60/MX2; experiment: Cytotoxicity against human HL60/MX2 cells after 72 hrs by sulforhodamine B assay; type: functional, cell-based; details: HL60/MX2, 72 h
[36] = tested on: MES-SA; experiment: Cytotoxicity against human MESSA cells after 72 hrs by sulforhodamine B assay; type: functional, cell-based

O=P(CCCCCCN=C=S)(Oc1ccccc1)Oc1ccccc1
pIC50 [1]: 4.95 | pIC50 [2]: 4.94 | Activity [3]: 67% | pIC50 [4]: 5.54 | Activity [5]: 57.6% | Activity [6]: 23.3% | Activity [7]: 59.7% | Activity [8]: 20.8 g/dL | Activity [9]: inactive | Activity [10]: 375.9 ×10³ /uL | Activity [11]: 11.6 ×10⁶ /uL | Activity [12]: inactive | pIC50 [13]: 5.08 | pIC50 [14]: 4.95 | Activity [15]: inactive | inhibition in vivo at 100 µmol/kg [16]: -6.4% | Activity [17]: 79.3% | Activity [18]: Active | Activity [19]: 1.32 g | pIC50 [20]: 6.10 | Ratio IC50 [21]: 10 | Activity [22]: 33.3 U/L | Activity [23]: 4.9 mmol/L | Activity [24]: Active | Activity [25]: Toxic | inhibition in vivo at 100 µmol/kg [26]: 23.1% | Activity [27]: Active | Activity [28]: 0.294 g | Activity [29]: 54.6% | fold change (FC) [30]: 6.8 | Activity [31]: <= 10% | Activity [32]: 855 ×10³ /uL | Activity [33]: 0.632 g | Activity [34]: Toxic | pIC50 [35]: 5.48 | pIC50 [36]: 4.97
